According to patent US5595756A, “Liposomal compositions for enhanced retention of bioactive agents” (Inex Pharmaceuticals Corporation, priority 1993, dated 1997):

Experiments:
[1] = Drug induced weight change in P388-bearing mice (% wt change on day 7); type: in vivo, BDF1 mice; settings: i.v.
Source text: Animal weights and mortality were monitored daily.

[2] = system: P388 lymphocytic leukemia; test: P388 antitumor activity (murine lymphocytic leukemia model), free and liposomal vincristine i.v.; settings: for Median Survival / 60-day Survival: i.v.; for Median Survival: saline control 10.0; for 60-day Survival: survivors/total; for % ILS (increase in life span): from median survival, treated vs saline control
Protocol: The antitumor effects of liposomal vincristine were monitored using the P388 lymphocytic leukemia model. BDF1 mice (5 per group) were injected i.p. with 1×10^6 P388 cells. The indicated doses of saline or liposomal vincristine were administered (i.v.) 24 h after tumor inoculation. Animal weights and mortality were monitored daily. Mean and median survival times as well as the statistical significance of the results were determined using the Mann-Whitney-Wilcoxon procedure.
Murine P388 antitumor activity of the DSPC/Chol/GM1 pH 2 liposomal vincristine preparation was compared to free drug and DSPC/Chol pH 4 liposomal vincristine (Table I below).

[3] = drug dose 1.0 mg/kg, lipid dose 10 mg/kg
[4] = drug dose 2.0 mg/kg, lipid dose 20 mg/kg
[5] = drug dose 3.0 mg/kg, lipid dose 30 mg/kg

CC[C@]1(O)C[C@H]2CN(CCc3c([nH]c4ccccc34)[C@@](C(=O)OC)(c3cc4c(cc3OC)N(C=O)[C@H]3[C@@](O)(C(=O)OC)[C@H](OC(C)=O)[C@]5(CC)C=CCN6CC[C@]43[C@@H]65)C2)C1 [Free Vincristine]
% wt change on day 7 [1, 3]: +1.9% | % wt change on day 7 [1, 4]: +0.5% | % wt change on day 7 [1, 5]: -13.4% | Median Survival [2, 3]: 14.0 days | 60-day Survival [2, 3]: 0/5 | % ILS (increase in life span) ([2]; drug dose 1.0 mg/kg): 40% | Median Survival [2, 4]: 15.0 days | 60-day Survival [2, 4]: 0/5 | % ILS (increase in life span) ([2]; drug dose 2.0 mg/kg): 50% | Median Survival [2, 5]: 16.0 days | 60-day Survival [2, 5]: 0/5 | % ILS (increase in life span) ([2]; drug dose 3.0 mg/kg): 60% | long-term survivors ([2]; long-term = >70 days): No long-term survivors
